Active and inactive are the calls of the source.
Legend:
HCC1428 [1] = experiment: Anticancer activity against ER-positive human HCC1428 cells assessed as effect on metabolic activity upto 10 uM incubated for 24 hrs by MTT assay; type: functional, cell-based
Mitochondrial membrane [2] = experiment: Induction of mitochondrial membrane potential depolarization in human CAMA-1 cells at 1 uM incubated for 24 hrs by 7-AAD staining based flow cytometric analysis; type: cell membranes
Mitochondrial membrane [3] = experiment: Induction of mitochondrial membrane potential depolarization in tamoxifen-induced senescent human HCC1500 cells assessed as increase in depolarized dead cell level at 1 to 5 uM incubated for 24 hrs by 7-AAD staining based flow cytometric analysis; type: cell membranes; details: dose 1-5 µM
Mitochondrial membrane [4] = experiment: Induction of mitochondrial membrane potential depolarization in tamoxifen-induced senescent human MCF-10F cells assessed as increase in depolarized dead cell level at 1 to 5 uM incubated for 24 hrs by 7-AAD staining based flow cytometric analysis; type: cell membranes; details: dose 1-5 µM
HCC1428 [5] = experiment: Induction of mitochondrial dysfunction in tamoxifen-induced senescent human HCC1428 cells assessed as decrease in maximal respiration at 5 uM incubated for 6 hrs by real-time analysis; type: functional, cell-based
MCF-10F [6] = experiment: Induction of mitochondrial dysfunction in tamoxifen-induced senescent human MCF-10F cells assessed as decrease in ATP production at 5 uM incubated for 6 hrs by real-time analysis; type: functional, cell-based
MCF-10F [7] = experiment: Induction of mitochondrial dysfunction in human MCF-10F cells assessed as decrease in coupling efficiency at 5 uM incubated for 6 hrs by real time analysis; type: functional, cell-based
HCC1428 [8] = experiment: Induction of autophagy in tamoxifen-induced senescent human HCC1428 cells assessed as increase in ULK1 level at 1 to 5 uM by immunostaining based imaging cytometric analysis; type: functional, cell-based; details: dose 1-5 µM
HCC1428 [9] = experiment: Induction of alternative mitophagy in tamoxifen-induced senescent human HCC1428 cells assessed as increase in Rab9 level at 1 to 5 uM by immunostaining based imaging cytometric analysis; type: functional, cell-based; details: dose 1-5 µM
HCC1428 [10] = experiment: Induction of oxidative stress in tamoxifen-induced senescent human HCC1428 cells assessed as increase in cytosolic SOD1 level at 1 to 5 uM incubated for 24 hrs by MitoSOX red superoxide indicator based fluorescence analysis; type: functional, cell-based; details: dose 1-5 µM
ZR-75-30 [11] = experiment: Induction of oxidative stress in tamoxifen-induced senescent human ZR-75-30 cells assessed as increase in cytosolic SOD1 level at 1 to 5 uM incubated for 24 hrs by MitoSOX red superoxide indicator based fluorescence analysis; type: functional, cell-based; details: dose 1-5 µM
HCC1500 = experiment: Induction of apoptosis in human HCC1500 cells assessed as phosphatidylserine externalization at 1 to 5 uM incubated for 24 hrs by Annexin V-FITC staining based flow cytometric analysis; type: functional, cell-based; details: dose 1-5 µM
HCC1428 [12] = experiment: Induction of apoptosis in human HCC1428 cells assessed as phosphatidylserine externalization at 1 to 5 uM incubated for 24 hrs by Annexin V-FITC staining based flow cytometric analysis; type: functional, cell-based; details: dose 1-5 µM
ZR-75-30 [13] = experiment: Induction of […] in human tamoxifen-induced senescent human ZR-75-30 cells at 1 to 5 uM by incubated for 24 hrs Annexin V-FITC staining based flow cytometric analysis; type: functional, cell-based; details: dose 1-5 µM
[14] = biological target: T1, Receptor-interacting serine/threonine-protein kinase 1 (Homo sapiens) (UniProt Q13546); experiment: Induction of RIP1 phosphorylation in human HCC1428 cells at 1 to 5 uM incubated for 24 hrs by Western blot analysis; type: cell-based; details: dose 1-5 µM
T1 sequence (whole entry): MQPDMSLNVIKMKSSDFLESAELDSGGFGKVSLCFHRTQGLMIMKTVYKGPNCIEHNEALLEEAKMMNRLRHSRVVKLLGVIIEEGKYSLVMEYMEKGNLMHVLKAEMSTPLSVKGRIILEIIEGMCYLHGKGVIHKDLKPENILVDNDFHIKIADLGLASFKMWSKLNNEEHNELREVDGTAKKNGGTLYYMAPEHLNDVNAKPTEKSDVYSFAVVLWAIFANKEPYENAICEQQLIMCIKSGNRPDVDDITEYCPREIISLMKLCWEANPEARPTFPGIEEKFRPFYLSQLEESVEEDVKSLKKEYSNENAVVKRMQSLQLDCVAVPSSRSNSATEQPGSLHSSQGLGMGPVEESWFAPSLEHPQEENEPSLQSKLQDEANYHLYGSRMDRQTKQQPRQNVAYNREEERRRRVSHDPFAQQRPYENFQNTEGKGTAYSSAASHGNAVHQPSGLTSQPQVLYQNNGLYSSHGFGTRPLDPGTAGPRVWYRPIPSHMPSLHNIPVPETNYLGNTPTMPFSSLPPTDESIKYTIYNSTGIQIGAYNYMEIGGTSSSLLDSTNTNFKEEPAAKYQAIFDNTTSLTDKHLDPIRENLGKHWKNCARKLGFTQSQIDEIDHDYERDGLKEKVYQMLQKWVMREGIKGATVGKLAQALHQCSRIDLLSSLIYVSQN

HCC1428 [15] = experiment: Induction of apoptosis in tamoxifen-induced senescent human HCC1428 cells assessed as increase in caspase 3 level incubated for 24 hrs by immunostaining based imaging cytometric analysis; type: functional, cell-based
ZR-75-30 [16] = experiment: Induction of apoptosis in human ZR-75-30 cells assessed as decrease in Bcl2 level at 1 to 5 uM incubated for 24 hrs by Western blot analysis; type: functional, cell-based; details: dose 1-5 µM
MCF-10F [17] = experiment: Induction of apoptosis in tamoxifen-induced senescent human MCF-10F cells assessed as decrease in Bcl2 level at 1 to 5 uM incubated for 24 hrs by Western blot analysis; type: functional, cell-based; details: dose 1-5 µM
HCC1428 [18] = experiment: Effect on Bcl-rambo protein level in tamoxifen-induced senescent human HCC1428 cells at 1 to 5 uM incubated for 24 hrs by Western blot analysis; type: functional, cell-based; details: dose 1-5 µM
ZR-75-30 [19] = experiment: Induction of AMPK phosphorylation in tamoxifen-induced senescent human ZR-75-30 cells incubated for 24 hrs by immunostaining based imaging cytometric analysis; type: cell-based; details: filed as activator
HCC1428 [20] = experiment: Induction of apoptosis in tamoxifen-induced senescent human HCC1428 cells assessed as decrease in HSP90 level incubated for 24 hrs by immunostaining based imaging cytometric analysis; type: functional, cell-based
HCC1428 [21] = experiment: Induction of apoptosis in tamoxifen-induced senescent human HCC1428 cells assessed as decrease in phosphorylated AKT level at 1 to 5 uM incubated for 24 hrs by Western blotting analysis; type: functional, cell-based; details: dose 1-5 µM
HCC1428 [22] = experiment: Induction of senescence in human HCC1428 cells assessed as […] in beta-galactosidase activity at 5 uM incubated for 24 hrs by immunostaining based imaging cytometric analysis; type: functional, cell-based
T47D [23] = experiment: Antitumor activity against ER-positive human T47D cells xenografted in Danio rerio embryo assessed as decrease in tumor size at 1 to 5 uM administered for 48 hrs by imaging analysis; type: functional, cell-based; details: dose 1-5 µM
T47D [24] = experiment: Antitumor activity against ER-positive human T47D cells xenografted in Danio rerio embryo assessed as increase in p21 mRNA level at 1 to 5 uM administered for 48 hrs by RT-PCR analysis; type: functional, cell-based; details: dose 1-5 µM

Measured: Activity

CC(=O)Oc1ccc2c(=O)c(OCCCC[P+](c3ccccc3)(c3ccccc3)c3ccccc3)c(-c3ccc4c(c3)OC(c3ccccc3)(c3ccccc3)O4)oc2c1.[I-]
Active; Most Pronounced Effect Observed: HCC1428 [22]
inactive: Mitochondrial membrane [4] | MCF-10F [6] | MCF-10F [7] | HCC1428 [9] | [14] | MCF-10F [17] | HCC1428 [18]
active: all other assays above

Reference: ChEMBL document CHEMBL6120962, “New Mitochondria-Targeted Fisetin Derivative Compromises Mitophagy and Limits Survival of Drug-Induced Senescent Breast Cancer Cells” (J Med Chem, 2024)
